# Source: patent EP0942896B1, “SUBSTITUTED PHENOLS AND THIOPHENOLS USEFUL AS ANTIOXIDANT AGENTS” (Aventis Pharmaceuticals Inc., priority 1996, dated 1998)
# Key:
# [1] = system: Choleterol-Fed Female New Zealand White Rabbits; assay: Hypocholesterolemic effects in cholesterol-fed rabbits: serum cholesterol, lipoprotein cholesterol, triglycerides; type: in vivo; details: % of control, diet 0.4%, 7 days, 0.2% cholesterol chow, N = 5
# Description: (§1) Perform five independent experiments in the following manner. Each study has a control group and 1-5 groups treated with MDL compound (N = 5 per group). Feed Female New Zealand White rabbits (Hazelton, ∼ 2.0-2.3 kg) 0.2% cholesterol enriched rabbit chow (Purina #5322) with or without 0.4% MDL compound. Solubilize the MDL compounds in 100% ethanol. Spray the chow with the MDL mixtures and allow to dry overnight in a chemical fume hood. Spray control chow with ethanol. Feed rabbits 100 grams food per day for 7 days (0.6% MDL 103,491 were fed for 14 days); make available water ad libitum. On day 7, bleed (~ 2 mL) rabbits (fasted overnight) from a marginal ear vein. Euthanize rabbits by carbon dioxide overdose. Record the total body and liver weights in grams. Record food as grams • day^-1 · rabbit^-1. Use aliquots of fresh serum for clinical chemistries, lipoprotein cholesterol determination, thiobarbituric acid reactive substances (TBARS) and compound and metabolite concentrations in serum. Freeze livers (∼ 5 gram aliquots) at -20°C for compound and metabolite concentration determination at a later time.
# Allow blood to clot at room temperature for 30 minutes. Obtain serum after centrifugation for 10 min at 5°C at 3000 rpm in a Beckman GPKR centrifuge with a GH rotor. Analyze by a COBAS MIRA autoanalyzer (Roche Diagnostics) using Roche diagnostic reagents for total cholesterol (CHOL, kit # 44334) and triglyceride (TG, kit # 44120). Calculate cholesterol and triglycerides as mg/dL.
# Separate lipoprotein fractions (very low density lipoprotein, VLDL, low density lipoprotein, LDL and high density lipoprotein, HDL) on a Sepharose 6HR column (1 x 30 cm, Pharmacia) attached to a Waters Powerline HPLC system. Inject serum (50 µL) onto the column and elute with phosphate buffered saline, pH 7.4, at a flow rate of 0.5 mL/min. Add cholesterol reagent (Roche Diagnostics, kit # 44334, diluted with 20 mL water and then with 20 mL of 0.9% saline) at 0.2 mL/min to the post column eluant and incubate in a knitted PFTE Kratos reaction coil (Applied Biosystems) at 37°C for 5 min. Measure absorbance at 500 nm. The lipoprotein subfractions are quantitated as follows: (total serum cholesterol) x (% area under the curve for each subfraction) [formula]
# [2] = system: oxidation of serum lipids; assay: TBARS assay on serum of treated cholesterol-fed rabbits (CuSO4-initiated oxidation); type: in vivo, Female New Zealand White rabbits; details: % of control, thiobarbituric acid reactive substances as nmole MDA, diet 0.4%, 7 days, N = 5
# Description: as §1, with “Freeze livers (∼ 5 gram aliquots) at -20°C for compound and metabolite concentration determination at a later time.” left out
# TBARS are a […] indication of the oxidation of lipids in a sample. […] Upon incubation with thiobarbituric acid, the absorbance of the aldehydes can be detected at 530-540 nm. […] Measure absorbances at 540 nm using a Biotek model EL311 microplate reader. The nmoles of MDA produced are calculated from a standard curve of 0 to 10 nmoles of MDA prepared from malonaldehyde bis(dimethylacetal). […]
compound,measurement,setting,value
"CC(C)=CCC[C@H](C)CCOc1cc(C(C)(C)C)c(O)c(C(C)(C)C)c1 [MDL 103,294, Phenol, 2,6-bis(1,1-dimethylethyl)-4-[(3,7-dimethyl-6-octenyl)oxy]-, (S)-]",HDL,[1]; High Density lipoprotein cholesterol,192%
same,LDL,[1]; Low Density lipoprotein cholesterol,82%
same,chol tot.,"[1]; total cholesterol in serum, fasted overnight",94%
same,TRIG,[1]; triglycerides in serum,197%
same,TBARS,[2],35%
